# From patent US6737383B1, “Herbicidal oxadiazolidines” (priority 1999, dated 2004)
# Experiments:
# [1] = test system: blackgrass; test: Test B pre/postemergence blackgrass; format: in vivo, Alopecurus myosuroides
# Method in brief: (§1)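 Response is a visual 0-to-10 score relative to untreated plants, where 0 means no effect and 10 means complete control, taken twelve to sixteen days after application. Treatments went onto soil at planting and onto foliage of 1- to 4-leaf plants, using a surfactant-containing non-phytotoxic solvent.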
# [2] = test system: surinam grass; test: Test B pre/postemergence surinam grass; format: in vivo, Brachiaria decumbens
# Method in brief: as §1
# [3] = test system: cocklebur; test: Test B pre/postemergence cocklebur; format: in vivo, Xanthium strumarium
# Method in brief: as §1
# [4] = test system: crabgrass; test: Test B pre/postemergence crabgrass; format: in vivo, Digitaria sanguinalis
# Method in brief: as §1
# [5] = test system: giant foxtail; test: Test B pre/postemergence giant foxtail; format: in vivo, Setaria faberii
# Method in brief: as §1
# [6] = test system: morningglory; test: Test B pre/postemergence morningglory; format: in vivo, Ipomoea hederacea
# Method in brief: as §1
# [7] = test system: pigweed; test: Test B pre/postemergence pigweed; format: in vivo, Amaranthus retroflexus
# Method in brief: as §1
# [8] = test system: sugar beet; test: Test B pre/postemergence sugar beet; format: in vivo, Beta vulgaris
# Method in brief: as §1
# [9] = test system: velvetleaf; test: Test B pre/postemergence velvetleaf; format: in vivo, Abutilon theophrasti
# Method in brief: as §1
# [10] = test system: wheat; test: Test B pre/postemergence wheat; format: in vivo, Triticum aestivum
# Method in brief: as §1
# [11] = test system: wild oat; test: Test B pre/postemergence wild oat; format: in vivo, Avena fatua
# Method in brief: as §1
# [12] = test system: purple nutsedge; test: Test B pre/postemergence purple nutsedge; format: in vivo, Cyperus rotundus
# Method in brief: as §1
# [13] = test system: rice; test: Test B flood test rice; format: in vivo, Oryza sativa
# Method in brief: (§2)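 Read-out is a visual response score from 0 (no effect) to 10 (complete control), assigned by comparison with untreated controls. Treatment was applied at the 2-leaf stage, and plants stayed in the greenhouse for twelve to sixteen days before scoring.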
# [14] = test system: duck salad; test: Test B flood test duck salad; format: in vivo, Heteranthera limosa
# Method in brief: as §2
# [15] = test system: bamyardgrass; test: Test B flood test barnyardgrass; format: in vivo, Echinochloa crus-galli
# Method in brief: as §2
# [16] = Postemergence, Rate 62 g/ha, scale 0 to 10, 0 is no effect, 10 is complete control
# [17] = Postemergence, Rate 125 g/ha, scale of 0 to 10 where 0 is no effect and 10 is complete control
# [18] = Postemergence, Rate 250 g/ha, scale of 0 to 10, 0 is no effect, 10 is complete control
# [19] = Postemergence, Rate 500 g/ha, scale of 0 to 10 where 0 is no effect and 10 is complete control
# [20] = Preemergence, Rate 62 g/ha, scale of 0 to 10 where 0 is no effect and 10 is complete control
# [21] = Preemergence, Rate 125 g/ha, scale of 0 to 10 where 0 is no effect and 10 is complete control
# [22] = Preemergence, Rate 250 g/ha, scale 0 to 10 (0 no effect, 10 complete control)
# [23] = Preemergence, Rate 500 g/ha, scale of 0 to 10 where 0 is no effect and 10 is complete control
# [24] = Rate 62 g/ha, flood test species, Pre-emergence, visual evaluation after twelve to sixteen days
# [25] = Rate 125 g/ha, under heading Pre-emergence, flood test species, visual evaluation after twelve to sixteen days
# [26] = Rate 250 g/ha, Pre-emergence (flood test species), scale 0 to 10, 0 is no effect, 10 is complete control
# [27] = Rate 500 g/ha, Pre-emergence section of Table B, 0 to 10 scale (0 no effect, 10 complete control)
smiles,measurement,setting,value
CC(C)N(C(=O)n1oc(=O)n(CC(=O)C2CCC2)c1=O)c1ccc(F)cc1F [Compound 642],"Plant response rating, Blackgrass",[1]; [16],0
same,Blackgrass plant response rating,[1]; [17],0
same,Blackgrass plant response rating,[1]; [18],6
same,"Plant response rating, Blackgrass",[1]; [19],6
same,Blackgrass plant response rating,[1]; [20],0
same,Blackgrass plant response rating,[1]; [21],0
same,"Plant response rating, Blackgrass",[1]; [22],4
same,"Plant response rating, Blackgrass",[1]; [23],7
same,"Plant response rating, B. signalgrass",[2]; [16],0
same,"Plant response rating, B. signalgrass",[2]; [17],0
same,B. signalgrass plant response rating,[2]; [18],0
same,"Plant response rating, B. signalgrass",[2]; [19],0
same,B. signalgrass plant response rating,[2]; [20],0
same,B. signalgrass plant response rating,[2]; [21],2
same,"Plant response rating, B. signalgrass",[2]; [22],5
same,"Plant response rating, B. signalgrass",[2]; [23],8
same,"Plant response rating, Cocklebur",[3]; [16],0
same,Cocklebur plant response rating,[3]; [17],0
same,Cocklebur plant response rating,[3]; [18],0
same,"Plant response rating, Cocklebur",[3]; [19],0
same,Cocklebur plant response rating,[3]; [20],0
same,Cocklebur plant response rating,[3]; [21],0
same,"Plant response rating, Cocklebur",[3]; [22],0
same,"Plant response rating, Cocklebur",[3]; [23],0
same,"Plant response rating, Crabgrass",[4]; [16],0
same,Crabgrass plant response rating,[4]; [17],0
same,Crabgrass plant response rating,[4]; [18],0
same,"Plant response rating, Crabgrass",[4]; [19],5
same,Crabgrass plant response rating,[4]; [20],6
same,Crabgrass plant response rating,[4]; [21],8
same,"Plant response rating, Crabgrass",[4]; [22],10
same,"Plant response rating, Crabgrass",[4]; [23],10
same,"Plant response rating, Giant foxtail",[5]; [16],0
same,Giant foxtail plant response rating,[5]; [17],0
same,Giant foxtail plant response rating,[5]; [18],4
same,"Plant response rating, Giant foxtail",[5]; [19],7
same,Giant foxtail plant response rating,[5]; [20],8
same,Giant foxtail plant response rating,[5]; [21],10
same,"Plant response rating, Giant foxtail",[5]; [22],10
same,"Plant response rating, Giant foxtail",[5]; [23],10
same,"Plant response rating, Morningglory",[6]; [16],0
same,Morningglory plant response rating,[6]; [17],0
same,Morningglory plant response rating,[6]; [18],0
same,"Plant response rating, Morningglory",[6]; [19],3
same,Morningglory plant response rating,[6]; [20],0
same,Morningglory plant response rating,[6]; [21],0
same,"Plant response rating, Morningglory",[6]; [22],0
same,"Plant response rating, Morningglory",[6]; [23],0
same,"Plant response rating, Redroot pigweed",[7]; [16],0
same,Redroot pigweed plant response rating,[7]; [17],0
same,Redroot pigweed plant response rating,[7]; [18],0
same,Redroot pigweed plant response rating,[7]; [20],0
same,Redroot pigweed plant response rating,[7]; [21],0
same,"Plant response rating, Redroot pigweed",[7]; [22],2
same,"Plant response rating, Redroot pigweed",[7]; [23],8
same,"Plant response rating, Sugarbeets",[8]; [16],0
same,Sugarbeets plant response rating,[8]; [17],0
same,Sugarbeets plant response rating,[8]; [18],0
same,Sugarbeets plant response rating,[8]; [20],0
same,Sugarbeets plant response rating,[8]; [21],0
same,"Plant response rating, Sugarbeets",[8]; [22],0
same,"Plant response rating, Sugarbeets",[8]; [23],4
same,"Plant response rating, Velvetleaf",[9]; [16],0
same,Velvetleaf plant response rating,[9]; [17],0
same,Velvetleaf plant response rating,[9]; [18],3
same,Velvetleaf plant response rating,[9]; [20],0
same,Velvetleaf plant response rating,[9]; [21],0
same,"Plant response rating, Velvetleaf",[9]; [22],0
same,"Plant response rating, Velvetleaf",[9]; [23],3
same,"Plant response rating, Wheat",[10]; [16],0
same,Wheat plant response rating,[10]; [17],0
same,Wheat plant response rating,[10]; [18],0
same,Wheat plant response rating,[10]; [20],0
same,Wheat plant response rating,[10]; [21],0
same,"Plant response rating, Wheat",[10]; [22],0
same,"Plant response rating, Wheat",[10]; [23],0
same,"Plant response rating, Wild oats",[11]; [16],1
same,Wild oats plant response rating,[11]; [17],1
same,Wild oats plant response rating,[11]; [18],1
same,Wild oats plant response rating,[11]; [20],0
same,Wild oats plant response rating,[11]; [21],0
same,"Plant response rating, Wild oats",[11]; [22],2
same,"Plant response rating, Wild oats",[11]; [23],4
same,"Plant response rating, Nutsedge",[12]; [16],0
same,Nutsedge plant response rating,[12]; [17],0
same,Nutsedge plant response rating,[12]; [18],0
same,"Plant response rating, Nutsedge",[12]; [19],0
same,Nutsedge plant response rating,[12]; [20],0
same,Nutsedge plant response rating,[12]; [21],0
same,"Plant response rating, Nutsedge",[12]; [22],0
same,"Plant response rating, Nutsedge",[12]; [23],0
same,"Plant response rating, Rice (0 to 10 scale, 0 is no effect, 10 is complete control)",[13]; [24],0
same,"Rice plant response rating (0 to 10 scale, 0 is no effect, 10 is complete control)",[13]; [25],0
same,Rice plant response rating,[13]; [26],0
same,Rice plant response rating,[13]; [27],0
same,"Plant response rating, Ducksalad (0 to 10 scale, 0 is no effect, 10 is complete control)",[14]; [24],0
same,"Ducksalad plant response rating (0 to 10 scale, 0 is no effect, 10 is complete control)",[14]; [25],0
same,Ducksalad plant response rating,[14]; [26],0
same,Ducksalad plant response rating,[14]; [27],0
same,"Plant response rating, Barnyardgrass (0 to 10 scale, 0 is no effect, 10 is complete control)",[15]; [24],0
same,"Barnyardgrass plant response rating (0 to 10 scale, 0 is no effect, 10 is complete control)",[15]; [25],0
same,Barnyardgrass plant response rating,[15]; [26],0
same,Barnyardgrass plant response rating,[15]; [27],0
